# Calls of active or inactive are those of the source. The calls are words filed in the database; no cut-off is given here.
# Key:
# Staphylococcus aureus [1] = experiment: Antibacterial activity against Staphylococcus aureus assessed as inhibition of bacterial growth measured after 24 hrs incubation; assay type: functional
# Staphylococcus aureus [2] = experiment: Antibacterial activity against Staphylococcus aureus ATCC 25923 assessed as inhibition of bacterial growth measured after 24 hrs incubation; assay type: functional
# Pseudomonas aeruginosa [3] = experiment: Antibacterial activity against Pseudomonas aeruginosa assessed as inhibition of bacterial growth measured after 24 hrs incubation; assay type: functional
# Pseudomonas aeruginosa [4] = experiment: Antibacterial activity against Pseudomonas aeruginosa ATCC 27853 assessed as inhibition of bacterial growth measured after 24 hrs incubation; assay type: functional
# Enterococcus faecalis = experiment: Potency index, ratio of norfloxacin MIC to test compound MIC for antibacterial activity against Enterococcus faecalis assessed as inhibition of bacterial growth measured after 24 hrs incubation; assay type: functional
# [5] = Cytotoxicity against human L02 cells assessed as cell viability at 16 ug/ml measured after 24 hrs relative to control; assay type: toxicity, cell-based; conditions: at 16 µg/mL, read-out: Activity
# [6] = Cytotoxicity against HUVEC cells assessed as cell viability at 64 ug/ml measured after 24 hrs relative to control; assay type: toxicity, cell-based; conditions: human, at 64 µg/mL, read-out: Activity
# Staphylococcus aureus [7] = experiment: Antibacterial activity against methicillin-resistant Staphylococcus aureus N315 assessed as reduction in bacterial burden at 2 to 4 times of MIC measured upto 7 hrs by time-dependent kinetics assay; assay type: functional, organism-based
# Escherichia coli [8] = experiment: Anti-biofilm effect in Escherichia coli assessed as biofilm destruction by measuring reduced biofilm content at MIC; assay type: functional
# Escherichia coli [9] = experiment: Anti-biofilm effect in Escherichia coli assessed as biofilm destruction rate at 6 times of MIC; assay type: functional
# Cell membrane [10] = experiment: Induction of cell membrane damage in methicillin-resistant Staphylococcus aureus N315 assessed as increase in density of red fluorescence at 4 times of MIC by Calcein-AM/PI dual staining based fluorescence microscopy; assay type: cell membranes
# Cell membrane [11] = experiment: Induction of cell membrane damage in Escherichia coli assessed as increase in density of red fluorescence at 4 times of MIC by Calcein-AM/PI dual staining based fluorescence microscopy; assay type: cell membranes
# Escherichia coli [12] = experiment: Induction of ROS production in Escherichia coli assessed as fluorescence intensity at 2 times of MIC by DCFH-DA (dichlorofluorescin diacetate) probe based assay; assay type: functional
# Escherichia coli [13] = experiment: Reduction in metabolic activity in Escherichia coli by Alamar Blue assay; assay type: functional, organism-based
smiles,measurement,setting,value
CCOC(=O)Cn1cc(/C=C(\C#N)C(=O)N2CCN(c3cc4c(cc3F)c(=O)c(C(=O)O)cn4CC)CC2)c2ccccc21,MIC,Staphylococcus aureus [1],0.25 µg/mL
same,MIC,Staphylococcus aureus [2],0.25 µg/mL
same,MIC,Pseudomonas aeruginosa [3],0.5 µg/mL
same,MIC,Pseudomonas aeruginosa [4],0.5 µg/mL
same,Ratio,Enterococcus faecalis,1
same,"viability at 24 h, 16 ug/ml",[5],80%
same,"viability at 24 h, 64 ug/ml",[6],85%
same,Activity,Staphylococcus aureus [7],Active
same,inhibition (INH),Escherichia coli [8],82.7%
same,inhibition (INH),Escherichia coli [9],>60%
same,Activity,Cell membrane [10],Active
same,Activity,Cell membrane [11],Active
same,Activity,Escherichia coli [12],>50%
same,Activity,Escherichia coli [13],Dose-Dependent Effect
